{
  "source": "paper PMC9802118",
  "about": "“C25-modified rifamycin derivatives with improved activity against Mycobacterium abscessus” (PNAS Nexus, 2022)",
  "key": {"[1]": {"molecular_target": "T1, ArrMsm (Mycolicibacterium smegmatis, UniProt A0QRS5)", "T1 construct": "gene MSMEG_1221; purified wild-type enzyme, N-terminal His6 tag cleaved with C3 protease", "T1 sequence (A0QRS5 entry or part of it)": "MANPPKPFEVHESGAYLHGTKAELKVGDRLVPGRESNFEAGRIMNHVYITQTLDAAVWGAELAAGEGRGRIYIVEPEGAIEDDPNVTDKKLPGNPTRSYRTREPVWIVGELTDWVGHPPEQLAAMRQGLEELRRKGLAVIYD", "test": "ITC (also nanoDSF; rpTLC ADP-ribosylation)", "assay_type": "binding"}, "[2]": {"molecular_target": "T2, ArrMab (Mycobacteroides abscessus, UniProt B1MH05)", "T2 construct": "gene MAB_0591; purified wild-type enzyme, N-terminal His6 tag cleaved with C3 protease", "T2 sequence (B1MH05 entry or part of it)": "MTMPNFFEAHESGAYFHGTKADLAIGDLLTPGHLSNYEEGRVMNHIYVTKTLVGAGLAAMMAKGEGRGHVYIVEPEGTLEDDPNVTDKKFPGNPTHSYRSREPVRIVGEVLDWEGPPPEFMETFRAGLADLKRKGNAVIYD", "test": "ITC (also nanoDSF; rpTLC ADP-ribosylation)", "assay_type": "binding"}},
  "data": [
    {"smiles": "CO[C@H]1/C=C/O[C@@]2(C)Oc3c(C)c(O)c4c(O)c(c(/C=N/N5CCN(C)CC5)c(O)c4c3C2=O)NC(=O)/C(C)=C\\C=C\\[C@H](C)[C@H](O)[C@@H](C)[C@@H](O)[C@@H](C)[C@H](OC(C)=O)[C@@H]1C", "note": "[RMP, Rifampicin]", "values": [
      {"measurement": "Kd", "setting": "[1]", "value": "290 ± 20", "unit": "nM"},
      {"measurement": "Kd", "setting": "[2]", "value": "4800 ± 3", "unit": "nM"}
    ]}
  ]
}
